Assay results reported in patent US7586008B2, “Propofol analogs, process for their preparation, and methods of use” (Abraxis Bioscience, Inc., priority 2003, dated 2009).
pIC50: −log10 of the molar value. Several values for one entry are separate records, joined by “and”; a condition that tells them apart may be missing. Identical values can stand only once. Like-named read-outs stand apart in the source and are kept apart here.

Tests used:
GABAA Cl channel = experiment: Competitive binding assay, GABAA Cl channel (3H-TBOB), bovine hippocampus; details: for Percent Inhibition, chloride channel: propofol at 10^-4 M
Description: (§1) The propofol binding site on GABAA was defined using a series of competitive binding assays. Frozen bovine hippocampus was thawed and homogenized in 40 volumes of ice-cold 0.32 M sucrose. The suspension was centrifuged at 1000×g for 10 minutes at 4° C. The pellet was washed twice in assay buffer and reacted with radioactive ligand in presence or absence of propofol at 10−4 M final concentration. The amount of radioactivity remained on the Whatman filter following filtration of the reaction mix and two washes with assay buffer was determined using a liquid scintillation counter. Inhibition of radioactive ligand binding by propofol represents the competitive binding of propofol to the same site as the radioactive ligand. GABAA agonist site, GABAA α-1 site, GABAA α-5 site, GABAA α-6 site, and GABAA Cl channel were assayed using ^3H-GABA, ^3H-Flunitrazepam, ^3H-RY80, ^3H-Ro 15-4513, and ^3H-TBOB.
(§2) To determine the binding constant (KD) of propofol and its analogs for GABAA Cl channel, binding was determined as in Example 25 in presence of increasing concentration of propofol and the KD determined graphically using the Hill plots. In vivo hypnotic activity was determined as follows. Drugs solubilized in DMSO were administered to rats by tail vein injection (N=5 rats per group). A dose level of 28 μmol/kg (5 mg/kg for propofol) was used to compensate for differences in molecular weight of the analogs. Anesthetic activity in vivo was determined as time to recovery of righting reflex following administration of the compounds.

rats [1] = experiment: Dose escalation toxicity, mortality and LD curves; details: rat
Description: (§3) Dose escalation experiment was performed in rat in order to compare the toxicity and the pharmacodynamic of CT8 against propofol. Drugs solubilized in DMSO were administered to rats (5 rats per group). Anesthetic activity in vivo was determined as time to recovery of righting reflex. Mortality was also monitored and the LD50 curves for propofol and CT8 constructed. In order to adjust for the differences in molecular weight between the two compounds, μmol/kg dose was used.

[2] = rat, single i.v. bolus in DMSO; propofol 5 mg/kg, CT8 10 mg/kg
GABAA alpha 2 site = details: propofol at 10^-4 M
Description: as §1

GABAA α-6 site = details: propofol at 10^-4 M, 3H-Ro 15-4513
Description: as §1

GABAA agonist site = details: propofol at 10^-4 M, 3H-GABA
Description: as §1

GABAA α-1 site = details: propofol at 10^-4 M, 3H-Flunitrazepam
Description: as §1

in vivo = details: male, Sprague-Dawley, rat, whole blood, iv
rats [3] = experiment: In vivo hypnotic/anesthetic activity, time to recovery of righting reflex; design: species or system rat; details: rat
Description: as §2, §3

## CC(C)c1cccc(C(C)C)c1O [Propofol, 2,6-diisopropylphenol]
GABAA Cl channel; increasing concentration, Hill plots, read-out: GABAA CI Channel Binding (IC50)
  pIC50: 5.31
GABAA Cl channel
  Percent Inhibition, chloride channel: only inhibited the binding of TBOB
GABAA Cl channel; listed as propofol
  Percent Inhibition, chloride channel: 117.52%
Rats [1]; dose 5.609469 μmol/kg
  Mortality (%): 0%
Rats [1]; dose 28.04734 μmol/kg
  Mortality (%): 10%
Rats [1]; dose 56.09469 μmol/kg
  Mortality (%): 80%
Rats [1]; dose 112.1894 μmol/kg
  Mortality (%): 100%
Rats [1]; drugs in DMSO
  calculated LD10: 28 µmol/kg
[2]
  V1: 15.0 L/kg
  V2: 58.0 L/kg
GABAA alpha 2 site
  Percent Inhibition, alpha 2 site: No significant inhibition
GABAA alpha 2 site; listed as propofol
  Percent Inhibition, alpha 2 site: −15.58%
GABAA α-6 site
  Percent Inhibition, alpha 6 site: No significant inhibition
GABAA α-6 site; listed as propofol
  Percent Inhibition, alpha 6 site: −0.89%
GABAA agonist site
  Percent Inhibition, agonist site: No significant inhibition
GABAA agonist site; listed as propofol
  Percent Inhibition, agonist site: 12.48%
GABAA α-1 site
  Percent Inhibition, alpha 1 site: No significant inhibition
GABAA α-1 site; listed as propofol
  Percent Inhibition, alpha 1 site: −14.31%
In vivo
  Vd: 73 L/kg
  clearance: 195 mL/min/kg
Rats [3]; dose 5.61 μmol/kg
  Time to Awakening (h) [mean ± SD, (N)]: 0.000 ± 0.000, (5) h
Rats [3]; dose 28.05 μmol/kg
  Time to Awakening (h) [mean ± SD, (N)]: 0.346 ± 0.149, (4) h and 0.350 ± 0.228 (5) h
Rats [3]; dose 56.09 μmol/kg
  Time to Awakening (h) [mean ± SD, (N)]: 0.600 ± 0.000, (1) h
Rats [3]; dose = LD10
  time rats were asleep at LD10: 0.35 h
